Source: patent publication US6562843B1, “Substituted 3-pyridyl-4-arylpyrroles, and related therapeutic and prophylactic methods” (Ortho-McNeil Pharmaceutical, Inc., priority 1999, dated 2003)
pIC50: −log10 of the molar value. Structures can show the parent of a compound that is named as a salt.

Assays:
[1] = test system: LPS-induced TNF-α production; test: In Vivo Rodent Assay for Inhibition of TNF-α Production (mice); parameters: species or system Mice (BALB/cJ females); details: oral dosing, LPS 1 mg/kg i.p., serum TNF-α; for inhibition in vivo at 10 mg/kg / inhibition in vivo at 25 mg/kg: Mus musculus, 1 h
Method: C. In Vivo Rodent Assay for Inhibition of TNF-α Production
Mice (BALB/cJ females, Jackson Laboratories) or rats (Lewis males, Charles River) were fasted for 30 min prior to oral dosing with 5-10 mL/kg of test compound at 5-50 mg/kg. Thirty minutes after dosing, the animals were injected intraperitoneally with LPS at 1 mg/kg and returned to their cages for 1 h. Animals were anesthetized by CO2, exsanguinated by cardiac puncture and whole blood collected (0.1-0.7 mL). The blood was allowed to clot and serum was transferred to a centrifuge tube. This sample was centrifuged, and serum was collected, aliquoted and frozen at −80° C. Samples were tested by commercial ELISA's for TNF-α (Endogen for mouse TNF-α and Biosource for rat TNF-α).

TNF-α production = test: In-Vitro Whole Cell Assay for TNF-α Inhibition (LPS-stimulated PBMC, ELISA); type: cell-based; details: LPS overnight, TNF-α by ELISA
Method: B. In-Vitro Whole Cell Assay for TNF-α Inhibition
Freshly obtained venous blood was anticoagulated with heparin, diluted with an equal volume of phosphate buffered saline (“PBS”) and placed in a sterile tube or other container. Aliquots (30 mL) of this mixture were transferred to centrifuge tubes which were underlaid with Ficoll-Hypaque (15 mL). The prepared tubes were centrifuged at 400×g, without braking, for 30 min at room temperature. Approximately ½ to ⅔ of the platelet layer above the mononuclear cell band was removed with a pipette. The majority of the mononuclear cell layer was carefully removed using a pipette and these PBMC's were diluted with PBS and spun at 600×g for 15 min. The resulting PBMC's were washed with another portion of PBS and spun at 400×g for 10 min at room temperature. The recovered pellets were diluted in low endotoxin RPMI/1% FCS culture medium, and gave a cell concentration of 0.5-2.0×10^6 PMBC/mL. A small volume of the suspension was removed for counting on a hemocytometer and the remaining preparation was centrifuged at 200×g for 15 min at room temperature. The recovered pelleted PMBC's were resuspended in RPMI/1% FCS to a concentration of 1.67×10^6/mL.
To run the assay, the PBMC suspension (180 μL) was transferred to duplicate wells of a 96-well flat-bottom microtiter plate and incubated for 1 h at 37° C. A solution of test compound (10 μL: prepared at 20× the desired final concentration) was added to each well and the plate was incubated for 1 h at 37° C. A solution (10 μL) of LPS in RPMI/1% FCS (200 ng/mL) was added and the wells were incubated overnight at 37° C. The supernate (100 μL) was removed from each well and diluted with RPMI/1% FCS (400 μL). The samples were analyzed for TNF-α using a commercial ELISA kit (Genzyme).
The compounds were tested for their ability to inhibit TNF-α production. The IC50 nM results are listed for the indicated compounds.

[2] = target: T1, purified recombinant p38 (6×His-p38 expressed in E.coli) (Homo sapiens, UniProt Q16539); test: p38 Inhibition In-Vitro Enzyme Assay; type: biochemical; details: myelin basic protein substrate, 33P-ATP; for inhibition at 10 µM: read-out: % p38 inhib @ 10 μM
T1 construct: 6xHis; made in house; host or cells: E. coli
Method: A. p38 Inhibition In-Vitro Enzyme Assay
A solution (38 μL) of purified recombinant p38 (6×His-p38 expressed in E.coli), myelin basic protein substrate (determined empirically), and a buffer of pH 7.5 (Hepes:25 mM, MgCl2:10 mM, MnCl2:10 mM) were added to 92 wells of a 96-well round bottom polypropylene plate. The amount of enzyme was determined empirically based on the linear range of the assay and the acceptable signal to noise ratio. The remaining wells were used for control “CTRL”) and background (“BKG”). The CTRL was prepared with the enzyme, substrate buffer and 2% DMSO, and the BKG was prepared with substrate buffer and 2% DMSO.
A solution (12 μL) of the test compound in DMSO was added to the testing wells. […] The ATP/^33P-ATP solution (10 μL containing 50 μM unlabeled ATP and 1 μCi ^33P-ATP) was added to all wells and the completed plates were mixed and incubated at 30° C. for 30 min. Ice-cold 50% TCA/10 mM sodium phosphate (60 μL) was added to each well and the plates were kept on ice for 15 min. The contents of each well were transferred to the wells of a 96-well filterplate (Millipore, MultiScreen-DP) and the filterplate was placed on a vacuum manifold fitted with a waste collection tray. The wells were washed five times with 10% TCA/10 mM sodium phosphate (200 μL) under vacuum. MicroScint-20 scintillant was added, and the plates were sealed using Topseal-S sheets and counted in a Packard TopCount scintillation counter using a ^33P liquid program with color quench correction, where the output is in color quench-corrected cpm. The % inhibition of each test compound as shown in Table 2 was calculated by the following formula: % inhibition=[1−(sample−BKG)/(CTRL−BKG)]×100.
[…] In addition, the IC50 was calculated for some compounds using the Deltagraph 4-parameter curve-fitting program.

T1 sequence (Q16539 whole entry): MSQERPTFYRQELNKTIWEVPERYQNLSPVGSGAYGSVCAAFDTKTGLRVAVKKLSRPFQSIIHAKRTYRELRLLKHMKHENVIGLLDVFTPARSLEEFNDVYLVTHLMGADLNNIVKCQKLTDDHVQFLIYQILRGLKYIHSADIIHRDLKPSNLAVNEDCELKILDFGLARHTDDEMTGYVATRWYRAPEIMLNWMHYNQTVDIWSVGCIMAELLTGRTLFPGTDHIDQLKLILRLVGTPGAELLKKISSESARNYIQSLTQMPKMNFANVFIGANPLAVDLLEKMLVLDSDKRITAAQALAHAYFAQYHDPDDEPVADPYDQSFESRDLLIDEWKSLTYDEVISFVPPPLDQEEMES

SMILES | pIC50 (TNF-α production) | also measured
Fc1ccc(-c2c[nH]cc2-c2ccncc2)cc1F [compound 1] | 7.70 | TNF-α % Inhibition Mouse ([1]; 25 mg/kg): 96%
Cn1cc(-c2ccncc2)c(-c2ccc(F)c(F)c2)c1 [compound 2] | 7.52 | % p38 inhib @ 10 μM [2]: 15%
O=[N+]([O-])c1ccc(-n2cc(-c3ccncc3)c(-c3ccc(F)c(F)c3)c2)cc1 [compound 3] | 8.70 | % p38 inhib @ 10 μM [2]: 80%; TNF-α % Inhibition Mouse ([1]; 10 mg/kg): 81%
N#Cc1ccc(-n2cc(-c3ccncc3)c(-c3ccc(F)c(F)c3)c2)cc1 [compound 4] | 8.70 | inhibition at 10 µM [2]: 21%
CS(=O)(=O)c1ccc(-n2cc(-c3ccncc3)c(-c3ccc(F)c(F)c3)c2)cc1 [compound 5] | 7.52 | 
Cn1cc(-c2ccncc2)c(-c2cc(F)cc(F)c2)c1 [compound 6] | 6.76 | 
Cn1cc(-c2ccncc2)c(-c2ccc(F)c(C(F)(F)F)c2)c1 [compound 7] | 7.00 | inhibition in vivo at 10 mg/kg ([1]; 10 mg/kg): 61%; inhibition in vivo at 25 mg/kg ([1]; 25 mg/kg): 79%
Cn1cc(-c2ccncc2)c(-c2cc(F)cc(C(F)(F)F)c2)c1 [compound 8] | 5.82 | 
Cn1cc(-c2ccncc2)c(-c2cccc(C(F)(F)F)c2)c1 [compound 9] | 6.90 | 
Cn1cc(-c2ccncc2)c(-c2cccc(F)c2)c1 [compound 10] | 6.90 | 
Cn1cc(-c2ccncc2)c(-c2cccc([N+](=O)[O-])c2)c1 [compound 11] | 7.00 | inhibition in vivo at 10 mg/kg ([1]; 10 mg/kg): 74%; inhibition in vivo at 25 mg/kg ([1]; 25 mg/kg): 94%
Oc1cccc(-c2c[nH]cc2-c2ccncc2)c1 [compound 12, 3-(3-Hydroxyphenyl)-4-(4-pyridyl)pyrrole Hydrobromide] | 6.52 | 
COc1cccc(-c2c[nH]cc2-c2ccncc2)c1 [compound 13, 3-(3-Methoxyphenyl)-4-(4-pyridyl)pyrrole] | 7.26 | 
COc1cccc(-c2cn(C)cc2-c2ccncc2)c1 [compound 14] | 7.26 | % p38 inhib @ 10 μM [2]: 43%; TNF-α % Inhibition Mouse ([1]; 10 mg/kg): 41%; TNF-α % Inhibition Mouse ([1]; 25 mg/kg): 71%
COc1cccc(-c2cn(-c3ccc([N+](=O)[O-])cc3)cc2-c2ccncc2)c1 [compound 15] | 7.70 | 
COc1cccc(-c2cn(-c3ccc(NC(C)=O)cc3)cc2-c2ccncc2)c1 [compound 16] | 7.12 | TNF-α % Inhibition Mouse ([1]; 25 mg/kg): 50%
COc1cccc(-c2cn(-c3ccc(N)cc3)cc2-c2ccncc2)c1 [compound 17] | 7.02 | TNF-α % Inhibition Mouse ([1]; 25 mg/kg): 66%
COc1cccc(-c2cn(-c3ccc(C#N)cc3)cc2-c2ccncc2)c1 [compound 18] | 7.82 | % p38 inhib @ 10 μM [2]: 23%; TNF-α % Inhibition Mouse ([1]; 10 mg/kg): 24%; TNF-α % Inhibition Mouse ([1]; 25 mg/kg): 60%
COc1cccc(-c2cn(-c3ccc(S(C)(=O)=O)cc3)cc2-c2ccncc2)c1 [compound 19] | 7.52 | TNF-α % Inhibition Mouse ([1]; 25 mg/kg): −127%
COc1cccc(-c2cn(-c3ccccn3)cc2-c2ccncc2)c1 [compound 20] | 6.82 | 
COc1cccc(-c2cn(-c3ccc([N+](=O)[O-])cc3[N+](=O)[O-])cc2-c2ccncc2)c1 [compound 21] | 7.10 | 

SMILES | pIC50 (TNF-α production) | also measured
COc1cccc(-c2cn(CCCc3ccccc3)cc2-c2ccncc2)c1 [compound 23] | 5.70 | 
COc1cccc(-c2c[nH]cc2-c2ccncn2)c1 [compound 24] | 6.60 | 
Cn1cc(-c2ccncc2)c(-c2ccsc2)c1 [compound 25] | 6.05 | 
COc1ccc(-c2cn(C)cc2-c2ccncc2)cc1 [compound 26] | 5.70 | 
Fc1ccc(-c2c[nH]cc2-c2ccncc2)cc1 [compound 27] | 7.05 | inhibition in vivo at 10 mg/kg ([1]; 10 mg/kg): 73%; inhibition in vivo at 25 mg/kg ([1]; 25 mg/kg): 100%
Cn1cc(-c2ccncc2)c(-c2ccc(F)cc2)c1 [compound 29, 1-Methyl-3-(4-fluorophenyl)-4-(4-pyridyl)pyrrole] | 6.70 | inhibition at 10 µM [2]: 34%
Nc1ccc(-n2cc(-c3ccc(F)cc3)c(-c3ccncc3)c2CCCc2ccccc2)cc1 [compound 33, 1-(4-Aminophenyl)-4-(4-fluorophenyl)-2-(3-phenylpropyl)-3-(4-pyridyl)pyrrole] | 8.10 | inhibition at 10 µM [2]: 51%
Cn1cc(-c2ccncc2)c(-c2ccncc2)c1 [compound 34] | 5.52 | 
CSc1ccc(-c2cn(C)cc2-c2ccncc2)cc1 [compound 35] | 6.60 | 
CN(C)c1ccc(-c2cn(C)cc2-c2ccncc2)cc1 [compound 36] | 6.30 | 
Cn1cc(-c2ccncc2)c(-c2ccc([S+](C)[O-])cc2)c1 (stereo not shown) [compound 37] | 5.52 | 
Cn1cc(-c2ccccc2)c(-c2ccncc2)c1 [compound 38] | 6.46 | 
Fc1ccc(-c2cn(CCCN3CCCCC3)c(CCCc3ccccc3)c2-c2ccncc2)cc1 [compound 39] | 8.30 | inhibition in vivo at 10 mg/kg ([1]; 10 mg/kg): 36%; inhibition in vivo at 25 mg/kg ([1]; 25 mg/kg): 100%
Fc1ccc(-c2cn(CCN3CCCCC3)c(CCCc3ccccc3)c2-c2ccncc2)cc1 [compound 40] | 8.52 | inhibition in vivo at 10 mg/kg ([1]; 10 mg/kg): 96%; inhibition in vivo at 25 mg/kg ([1]; 25 mg/kg): 96%
CN1CCCC1CCn1cc(-c2ccc(F)cc2)c(-c2ccncc2)c1CCCc1ccccc1 (stereo not shown) [compound 41] | 8.30 | inhibition in vivo at 10 mg/kg ([1]; 10 mg/kg): 100%; inhibition in vivo at 25 mg/kg ([1]; 25 mg/kg): 100%
CN1CCCC(Cn2cc(-c3ccc(F)cc3)c(-c3ccncc3)c2CCCc2ccccc2)C1 (stereo not shown) [compound 42] | 8.70 | inhibition in vivo at 10 mg/kg ([1]; 10 mg/kg): 100%; inhibition in vivo at 25 mg/kg ([1]; 25 mg/kg): 100%
Fc1ccc(-c2cn(CCN3CCOCC3)c(CCCc3ccccc3)c2-c2ccncc2)cc1 [compound 43] | 9.00 | inhibition in vivo at 10 mg/kg ([1]; 10 mg/kg): 93%; inhibition in vivo at 25 mg/kg ([1]; 25 mg/kg): 93%
CN(C)CCCn1cc(-c2ccc(F)cc2)c(-c2ccncc2)c1CCCc1ccccc1 [compound 44] | 8.10 | inhibition in vivo at 10 mg/kg ([1]; 10 mg/kg): 100%; inhibition in vivo at 25 mg/kg ([1]; 25 mg/kg): 100%
Fc1ccc(-c2cn(CCN3CCCC3)c(CCCc3ccccc3)c2-c2ccncc2)cc1 [compound 45] | 8.52 | inhibition in vivo at 10 mg/kg ([1]; 10 mg/kg): 99%; inhibition in vivo at 25 mg/kg ([1]; 25 mg/kg): 99%
OCCCc1[nH]cc(-c2ccc(F)cc2)c1-c1ccncc1 [compound 46, 4-(4-Fluorophenyl)-2-(3-hydroxypropyl)-3-(4-pyridyl)pyrrole] | 6.26 | 
Fc1ccc(-c2c[nH]c(CCCN3CCOCC3)c2-c2ccncc2)cc1 [compound 47, 4-(4-Fluorophenyl)-2-(3-morpholinopropyl)-3-(4-pyridyl)pyrrole] | 6.75 | inhibition in vivo at 25 mg/kg ([1]; 25 mg/kg): 77%
